Measurements: patent US20070244115A1, “Amino-Halogen-Imidazopyridines as Proton Pump Inhibitors” (Alana Pharma AG, priority 2004, published 2007)

What follows are compounds tested on pentagastrin-stimulated acid secretion of the perfused rat stomach (assay: Secretion-inhibiting action on the perfused rat stomach (pentagastrin-stimulated acid secretion)). Conditions: anesthetized CD rat, dose 2.2 μmol/kg i.d. (intraduodenal).
Type: in vivo
Source text: Testing of the Secretion-Inhibiting Action on the Perfused Rat Stomach
In Table A which follows, the influence of the compounds according to the invention on the pentagastrin-stimulated acid secretion of the perfused rat stomach after intraduodenal administration in vivo is shown.
The abdomen of anesthetized rats (CD rat, female, 200-250 g; 1.5 g/kg i.m. urethane) was opened after tracheotomy by a median upper abdominal incision and a PVC catheter was fixed transorally in the esophagus and another via the pylorus such that the ends of the tubes just projected into the gastric lumen. The catheter leading from the pylorus led outward into the right abdominal wall through a side opening.
After thorough rinsing (about 50-100 ml), warm (37° C.) physiological NaCl solution was continuously passed through the stomach (0.5 ml/min, pH 6.8-6.9; Braun-Unita I). The pH (pH meter 632, glass electrode EA 147; φ=5 mm, Metrohm) and, by titration with a freshly prepared 0.01N NaOH solution to pH 7 (Dosimat 665 Metrohm), the secreted HCl were determined in the effluent in each case collected at an interval of 15 minutes.
The gastric secretion was stimulated by continuous infusion of 1 μg/kg (=1.65 ml/h) of i.v. pentagastrin (left femoral vein) about 30 min after the end of the operation (i.e. after determination of 2 preliminary fractions). The substances to be tested were administered intraduodenally in a 2.5 ml/kg liquid volume 60 min after the start of the continuous pentagastrin infusion.
The body temperature of the animals was kept at a constant 37.8-38° C. by infrared irradiation and heat pads (automatic, stepless control by means of a rectal temperature sensor).

Row | Structure (SMILES) | Inhibition of acid secretion (%)
1 | COc1ccc2nc([S+]([O-])Cc3nccc(N4CCOCC4)c3Cl)[nH]c2n1 (stereo not drawn) [Example 1, 2-(3Chloro-4-morpholin-4-yl-pyridin-2-ylmethanesulfinyl)-5-methoxy-3H-imidazo[4,5-b]pyridine] | >50%
2 | COc1ccc2nc([S@@+]([O-])Cc3nccc(N4CCOCC4)c3Cl)[nH]c2n1 [Example 2, (S)-2-(3-Chloro-4-morpholin-4-yl-pyridin-2-ylmethanesulfinyl)-5-methoxy-3H-imidazo[4,5-b]pyridine] | >50%
3 | COc1ccc2nc([S@+]([O-])Cc3nccc(N4CCOCC4)c3Cl)[nH]c2n1 [Example 3, (R)-2-(3-Chloro-4-morpholin-4-yl-pyridin-2-ylmethanesulfinyl)-5-methoxy-3H-imidazo[4,5-]pyridine] | >50%
